Experimental data reported in patent publication US9364454B2, “Anti-inflammatory actions of neuroprotectin D1/protectin D1 and its natural stereoisomers” (The Brigham and Women's Hospital, Inc., priority 2005, dated 2016).
“Also recorded” adds a separate entry of the source.

How the values were obtained:
[1] = system: FVB male mice; experiment: Acute inflammatory exudates: zymosan A murine peritonitis (leukocyte infiltration); type: in vivo, mouse; details: for anti-inflammatory potency in vivo, PMN infiltration (in words): dose range tested (FIG. 6), lavage at 2 h; for activity on PMN infiltration at higher doses / dose dependence (in words): higher doses (10 ng, 100 ng); for kind of joint anti-inflammatory action of PD1 and RvE1: 10 ng/mouse i.p. of either or both, 2 h
Procedure: Peritonitis was carried out using 6-8 week-old FVB male mice (Charles River Laboratories) fed laboratory Rodent Diet 5001 (Purina Mills) that were anesthetized with isoflurane, and compounds to be tested were administered intraperitoneally. […] Each compound tested or vehicle alone was suspended in 1 μl ethanol and mixed in sterile saline (120 μl). After intraperitoneal injections (either 2 or 4 hours of acute inflammation), the mice were sacrificed in accordance with the Harvard Medical Area Standing Committee on Animals protocol no. 02570, and peritoneal lavages were collected rapidly and placed in an ice bath (4° C.) for enumeration, differential counts, and further analysis.

[2] = system: human PMN transmigration across endothelial cells; experiment: Human PMN transmigration across HMEC monolayers, LTB4-induced; type: cell-based; details: compound 15 min, LTB4 10^-8 M 90 min
Procedure: PMN were freshly isolated from whole blood obtained by venipuncture from healthy human donors (who denied taking medication for 2 weeks prior to donation; BWH protocol no. 88-02642) and anti-coagulated with acid citrate dextrose as in (40, 41). Briefly, plasma and mononuclear cells were removed by aspiration from the buffy coat after centrifugation (400 g; 20 min) at room temperature. Histopaque (density 1.077) was from Sigma-Aldrich (St. Louis, Mo.). RBCs were sedimented using 2% gelatin, and residual RBCs were removed by lysis in ice-cold NH4Cl buffer. The cell suspensions were >90% PMN as determined by light microscopic evaluation. PMN were suspended at 5×10^7 cells/ml in HBSS with 10 mM Hepes, pH 7.4, and without Ca^2+ or Mg^2+ (Sigma-Aldrich, St. Louis, Mo.). PMN were used within 2 hours of their isolation.
Human Microvascular Endothelial Cells (HMEC; a gift from Francisco Candal of the Centers for Disease Control, Atlanta, Ga.) were obtained as primary cultures. For preparation of experimental HMEC monolayers, confluent endothelial cells were grown on 0.33 cm^2 ring-supported polycarbonate filters (5 μm pore size; Costar Corp., Cambridge, Mass.) in the apical-to-basolateral direction. Cells were grown for ˜1 week prior to transmigration experiments.
Transmigration was conducted essentially as in ref. (41). PMN were incubated with either vehicle-containing buffer or compound for 15 minutes at 37° C. A chemotactic gradient was established by placing HMEC inserts that had been washed in HBSS with Ca^2+ and Mg^2+ (denoted +/+) in 10^−8M LTB4 in the lower chambers. Neutrophils (10^6 cells) were added to 50 μl HBSS +/+ in the upper chambers and cells were incubated at 37° C. for 90 min. Transmigrated PMN were quantified by assessing the PMN azurophilic marker myeloperoxidase and a calibration curve. PMN were lysed by the addition of Triton X-100 to a final concentration of 0.5%. The samples were acidified with citrate buffer (final concentration 100 mM, pH 4.2). An aliquot of each sample was added to an equal volume of ABTS solution (1 mM ABTS [2′-azino-bis(3-ethylbenzo-thiazoline-6-sulfonic acid)], 0.03% H2O2, 100 mM sodium citrate buffer, pH 4.2) in a 96-well plate. The resulting color was monitored using a plate reader at 405 nm and a calibration curve for cell number.

| Compound | rank order of potency ([1]; 0.1 ng dose) | activity on PMN infiltration (in words) ([1]; 1 ng/mouse dose) | rank order of potency ([1]; 1-10 ng dose) | anti-inflammatory potency in vivo, PMN infiltration (in words) [1] | also measured |
| --- | --- | --- | --- | --- | --- |
| CC/C=C\C[C@H](O)C#C/C=C/C=C/[C@H](O)C/C=C\C/C=C\CCC(=O)O [15,16-dehydro-PD1] | – | – | – | – | PMN infiltration (in words) ([1]; 10 ng/mouse, 4 h after injection (FIG. 9)): retained activity in vivo; also recorded: slightly less potent than the native PD1; also recorded: reduced PMN infiltration; also recorded: Statistically different from *zymosan A-injected mice; also recorded: less potent; recruitment of monocytes and lymphocytes to exudates (in words) ([1]; peritonitis, differential counts): increased the non-phlogistic recruitment of monocytes and lymphocytes |
| CC/C=C\C[C@H](O)/C=C/C=C\C=C\[C@@H](O)C/C=C\C/C=C\CCC(=O)O [Compound I, 10S,17S-dihydroxy-docosa-4Z,7Z,11E,13Z,15E,19Z-hexaenoic acid] | Compound VI>>PD1>10S,17S-DT (the double dioxygenation product)>the Δ15-trans-PD1>>Compound V | did display some activity | PD1≈PD1 methyl ester>>Δ15-trans PD1>10S,17S-diHDHA (isomer I) | nor did it carry potent actions; also recorded: substantially less potent; also recorded: PD1 (Compound II)>>10S,17S-diHDHA (Compound I); also recorded: possesses some anti-inflammatory activity in vivo, albeit proved to be much less potent than natural or synthetic PD1 | activity on PMN infiltration (in words) ([1]; 0.1 ng dose, compared to PD1): not active; activity on PMN infiltration at higher doses / dose dependence (in words) [1]: blocked PMN infiltration, but it was less potent than PD1; also recorded: did not increase with higher doses in a statistically significant fashion |
| CC/C=C\C[C@H](O)/C=C/C=C/C=C/[C@H](O)C/C=C\C/C=C\CCC(=O)O [Compound III, 10R,17S-dihydroxy-docosa-4Z,7Z,11E,13E,15E,19Z-hexaenoic-acid] | Compound VI>>PD1>10S,17S-DT (the double dioxygenation product)>the Δ15-trans-PD1>>Compound V | substantially less potent | PD1≈PD1 methyl ester>>Δ15-trans PD1>10S,17S-diHDHA (isomer I) | possesses little bioactivity in vitro or in vivo | effect on LTB4-induced PMN transmigration (in words) [2]: possesses little bioactivity in vitro or in vivo; effect on LTB4-induced PMN transmigration (in words) ([2]; listed as 415-trans-PD1): essentially inactive; effect on LTB4-induced PMN transmigration (in words) ([2]; listed as Δ15-trans isomer of PD1): did not block PMN transmigration in vitro |
| CC/C=C\C[C@H](O)/C=C/C=C\C=C\[C@H](O)C/C=C\C/C=C\CCC(=O)O [Compound IV, 10R,17S-dihydroxy-docosa-4Z,7Z,11E,13Z,15E,19Z-hexaenoic-acid] | – | essentially equipotent | – | – | activity on PMN infiltration at higher doses / dose dependence (in words) [1]: did not increase potency in a dose-dependent fashion |
| CC/C=C\C[C@@H](O)\C=C/C=C/C=C/[C@@H](O)C/C=C\C/C=C\CCC(=O)O [Compound V, 10S,17R,-dihydroxy-docosa-4Z,7Z,11E,13E,15Z,19Z-hexaenoic-acid] | Compound VI>>PD1>10S,17S-DT (the double dioxygenation product)>the Δ15-trans-PD1>>Compound V | – | – | essentially without activity | anti-inflammatory potency in vivo, PMN infiltration (in words) ([1]; listed as compound V): essentially inactive in vivo |
| CC/C=C\C[C@H](O)\C=C/C=C/C=C/[C@@H](O)C/C=C\C/C=C\CCC(=O)O [Compound VI, 10S,17S-dihydroxy-docosa-4Z,7Z,11E,13E,15Z,19Z-hexaenoic-acid] | Compound VI>>PD1>10S,17S-DT (the double dioxygenation product)>the Δ15-trans-PD1>>Compound V | – | – | the most potent of these isomers in vivo | anti-inflammatory potency in vivo, PMN infiltration (in words) ([1]; listed as compound VI): carries bioactivity; anti-inflammatory potency in vivo, PMN infiltration (in words) ([1]; listed as isomer VI): ≧PD1 |
| CC/C=C\C[C@H](O)\C=C/C=C/C=C/[C@H](O)C/C=C\C/C=C\CCC(=O)OC [PD1 methyl ester] | – | – | PD1≈PD1 methyl ester>>Δ15-trans PD1>10S,17S-diHDHA (isomer I) | – | – |
| CC[C@@H](O)/C=C/C=C\C[C@@H](O)/C=C/C=C/C=C\[C@@H](O)CCCC(=O)O [RvE1, 5S,12R,18R-trihydroxy-6Z,8E,10E,14Z,16E-eicosapentaenoic acid, reference compound] | – | – | – | – | kind of joint anti-inflammatory action of PD1 and RvE1 [1]: additive rather than synergistic; kind of joint anti-inflammatory action of PD1 and RvE1 ([1]; listed as resolvin E1): additive; PMN infiltration, PD1 and RvE1 administered together (in words) ([1]; 10 ng/mouse i.p., exudates at 2 h): reduced the infiltration of PMN |
| CCC=CCC(O)C=CC=CC=CC(O)CC=CCC=CCCC(=O)OC (centres unmarked) [methyl ester of Compound VI] | – | – | – | potent regulator of PMN infiltration | – |
